Series [1] deals with T1, GBA2 (Homo sapiens, UniProt Q9HCG7).
T1 construct: expressed in transfected cells
T1 sequence (Q9HCG7 1-927): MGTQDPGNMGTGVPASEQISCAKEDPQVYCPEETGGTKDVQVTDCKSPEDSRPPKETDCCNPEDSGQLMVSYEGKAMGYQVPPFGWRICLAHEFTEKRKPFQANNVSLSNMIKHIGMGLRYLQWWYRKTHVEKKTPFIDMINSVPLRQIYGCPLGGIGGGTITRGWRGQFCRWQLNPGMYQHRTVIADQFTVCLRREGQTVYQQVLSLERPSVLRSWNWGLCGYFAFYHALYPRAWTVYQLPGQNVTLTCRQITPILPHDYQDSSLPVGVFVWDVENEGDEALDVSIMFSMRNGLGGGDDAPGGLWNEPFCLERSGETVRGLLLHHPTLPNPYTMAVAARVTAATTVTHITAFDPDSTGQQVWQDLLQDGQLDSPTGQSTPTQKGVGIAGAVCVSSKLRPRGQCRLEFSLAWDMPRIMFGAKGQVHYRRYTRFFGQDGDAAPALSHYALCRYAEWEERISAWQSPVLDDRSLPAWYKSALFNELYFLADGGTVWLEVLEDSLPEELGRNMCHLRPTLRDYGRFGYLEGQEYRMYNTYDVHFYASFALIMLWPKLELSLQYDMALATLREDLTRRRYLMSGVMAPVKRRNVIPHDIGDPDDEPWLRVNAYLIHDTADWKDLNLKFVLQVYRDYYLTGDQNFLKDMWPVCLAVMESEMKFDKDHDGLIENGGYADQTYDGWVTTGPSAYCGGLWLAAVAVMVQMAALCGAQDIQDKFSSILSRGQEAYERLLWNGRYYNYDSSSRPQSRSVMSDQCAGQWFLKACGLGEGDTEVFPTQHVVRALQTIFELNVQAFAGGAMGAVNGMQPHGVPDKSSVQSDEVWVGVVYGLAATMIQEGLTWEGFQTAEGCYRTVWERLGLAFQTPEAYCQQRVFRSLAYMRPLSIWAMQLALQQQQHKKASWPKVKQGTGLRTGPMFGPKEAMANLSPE
Put plainly: GBA2 inhibition in overexpressing HEK293T lysates. It is filed as biochemical. To be noted: McIlvaine pH 5.8, 4-MU substrate. As for the experimental part: (§1) Based on the pull-down validation, a set of eight cyclic peptides (L1, L2, L4, L6, D1, D8, D12 and D13) were identified, synthesized, and evaluated for their inhibitory potency against recombinant human GBA1 (rhGBA1, Cerezyme®) and their selectivity over human β-glucosidases GBA2 and GBA3. Half-maximum inhibitory concentration (IC50) values for β-glucosidases were determined in vitro by measuring hydrolysis of 4-methylumbelliferyl-β-D-glucopyranoside (4-MU-β-D-Glu) fluorogenic substrate. […]
2.5. In vitro IC50 and Ki measurements […]
nM) at 37 °C for 30 min. Following this, 100 µL of 4MU substrate was added and the samples were again incubated at 37 °C for 30 min. The reaction was quenched using excess 1 M NaOH-glycine (200 µL, pH 10.3) and 4MU fluorescence was measured using a LS55 fluorimeter (λEx 366 nm and λEm 445 […]
GBA2 and GBA3 IC50 values were determined following a similar protocol,5 using stable GBA2 or GBA3 HEK293T over-expression cell lysates and McIlvaine buffer pH 5.8 with 0.1 % BSA (w/v) and 100 mM HEPES with 0.1 % BSA, respectively. Covalent inhibitor of endogenous GBA1 (1 µM Bodipy green-cyclophellitol β-epoxide activity based probe) was added for both GBA2 and GBA3 assays, and GBA2 inhibitor N-(5-adamantane-1-yl-methoxy-pentyl)-deoxynojirimycin, AMP-DNM at 1 nM) was added for GBA3 assay. Cell lysates were pre-incubated with the aforementioned GBA1/GBA2 inhibitors for 30 min at 37 °C (12.5 µL) and subsequently incubated with the tested ligands at a range of concentrations for 30 min at 37 °C (12.5 µL), after which 100 µL 4MU-β-D-glucopyranoside was added for a final incubation of 30 min at 37 °C, quenched with 200 µL 1 M NaOH-glycine (pH 10.3) and fluorescence was measured. IC50 values were calculated using GraphPad Prism version 8.

In series [2] the target is T2, recombinant human GBA1 (rhGBA1, Cerezyme) (Homo sapiens, UniProt P04062, R534H).
T2 construct: purchased Cerezyme
T2 sequence (P04062 40-536 R534H): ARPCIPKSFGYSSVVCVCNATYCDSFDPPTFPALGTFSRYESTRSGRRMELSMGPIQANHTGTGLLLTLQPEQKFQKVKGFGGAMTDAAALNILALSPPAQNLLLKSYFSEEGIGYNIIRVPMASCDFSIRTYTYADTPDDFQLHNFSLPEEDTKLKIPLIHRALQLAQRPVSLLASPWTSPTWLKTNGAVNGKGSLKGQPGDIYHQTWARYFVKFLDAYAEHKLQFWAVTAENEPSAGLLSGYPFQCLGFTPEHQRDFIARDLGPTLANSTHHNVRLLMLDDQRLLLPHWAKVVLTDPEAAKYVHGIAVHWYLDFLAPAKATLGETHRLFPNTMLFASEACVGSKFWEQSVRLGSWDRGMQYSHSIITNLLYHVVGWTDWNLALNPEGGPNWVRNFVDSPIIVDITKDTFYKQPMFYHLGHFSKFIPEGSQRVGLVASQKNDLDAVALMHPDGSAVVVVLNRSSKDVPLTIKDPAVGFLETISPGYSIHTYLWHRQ
Put plainly: In vitro rhGBA1 inhibition, 4-MU-β-D-glucopyranoside hydrolysis. Format: biochemical. To be noted: Cerezyme 14 nM, 3.7 mM 4-MU-β-D-glucopyranoside, McIlvaine pH 5.2, 30 min pre-incubation 37 °C + 30 min, mean ± SD from 3 technical triplicates. As for the experimental part: as §1
Pure product fractions were pooled, lyophilized, and dissolved again in DMSO before concentration was determined by A280 using a sample diluted in phosphate buffer at pH 7.4 and extinction coefficients determined from the sequence using the Expasy ProtParam online tool (https://web.expasy.org/protparam/). […]
2.5. In vitro IC50 and Ki measurements
For GBA1, IC50 values were determined using the recombinant human GBA1 (rhGBA1, Cerezyme) following described procedures.4 Enzyme activity was measured using 3.7 mM 4-methylumbeliferone (4MU)-β-D-glucopyranoside in 150 mM McIlvaine buffer pH 5.2 supplemented with 0.1% bovine serum albumin (BSA) (w/v), 0.1% Triton X-100 (v/v), and 0.2% sodium taurocholate (w/v). Varying concentrations of inhibitor (12.5 µL) were incubated with 12.5 µL of enzyme (final concentration 14 nM) at 37 °C for 30 min. Following this, 100 µL of 4MU substrate was added and the samples were again incubated at 37 °C for 30 min. The reaction was quenched using excess 1 M NaOH-glycine (200 µL, pH 10.3) and 4MU fluorescence was measured using a LS55 fluorimeter (λEx 366 nm and λEm 445 […]
30 min at 37 °C (12.5 µL) and subsequently incubated with the tested ligands at a range of concentrations for 30 min at 37 °C (12.5 µL), after which 100 µL 4MU-β-D-glucopyranoside was added for a final incubation of 30 min at 37 °C, quenched with 200 µL 1 M NaOH-glycine (pH 10.3) and fluorescence was measured. IC50 values were calculated using GraphPad Prism version 8.

The subject of series [3] is RAW 264.7 cells. The experiment in a line: In situ competitive activity-based protein profiling (cABPP). Format: cell-based. To be noted: 0-100 μM for 4 hours, then JJB75 10 nM for 2 hours, fluorescence SDS-gel scanning. As for the experimental part: We further investigated GBA1 inhibition in cells. Human dermal fibroblasts were initially incubated with peptide concentrations ranging from 0.1 μM (from 0.001 μM for L4, D1 and D12) to 100 μM of each cyclic peptide for 3 hours. […] To further confirm the inability of these peptides to cross the cell membrane, we conducted in situ competitive activity-based protein profiling (cABPP) experiments using RAW 264.7 monocyte/macrophage-like cells. […]
Figure S6. […] Cells were washed, lysed and analysed by fluorescent readout. […]
Human fibroblasts (Cambrex-Lonza CC-2511) were cultured in complete DMEM/F12 growth medium supplemented with 10% (v/v) foetal calf serum and 0.1 % (w/v) penicillin/streptomycin at 37 °C and 5% CO2. […] GlcCer and GlcSph lipids were quantified as described below. In parallel, enzyme activity in cell lysates was measured using 3.7 mM 4-methylumbeliferone (4MU)-β-D-glucopyranoside in 150 mM McIlvaine buffer pH 5.2 supplemented with 0.1% bovine serum albumin (BSA) (w/v), 0.1% Triton X-100 (v/v), and 0.2% sodium taurocholate (w/v) as described above (see Table S1). […]
Cells were kept on ice and equal protein amounts were loaded per well on a 10% SDS-PAGE gel. Gels were scanned for fluorescence and then stained with Coomassie Brilliant Blue for loading control. […]
Levels of GlcCer and GlcSph were determined with a modified acidic Bligh & Dyer extraction (Figure 2 […]

Positions of bridges follow the written chain, without caps; N, C: chain ends. Non-standard residues stand in square brackets, D forms with d. Residues, ends and D or L forms follow the SMILES beside them.

Take `CC[C@H](C)[C@@H]1NC(=O)[C@H](CC(C)C)NC(=O)[C@H](Cc2ccc(O)cc2)NC(=O)[C@H](C)NC(=O)[C@H](CCC(N)=O)NC(=O)[C@H](CO)NC(=O)[C@H](CCCCN)NC(=O)[C@H]([C@@H](C)O)NC(=O)[C@H](Cc2c[nH]c3ccccc23)NC(=O)[C@H]([C@@H](C)O)NC(=O)[C@H]([C@@H](C)CC)NC(=O)[C@H](C(C)C)NC(=O)[C@H](CCC(N)=O)NC(=O)[C@@H](Cc2ccc(O)cc2)NC(=O)CSC[C@@H](C(N)=O)NC(=O)[C@H](CCC(N)=O)NC1=O` [D13] ({CH2CO}-[dY]QVITWTKSQAYLIQC-NH2; thioether N-16): the concentration for half-maximal inhibition (IC50) – broadly, the concentration that inhibits the measured activity by half – in series [1] is greater than 100 µM; in series [2] (SD) it was 26.4 ± 3.31 µM. Moreover, in series [2], the “rhGBA1 IC50” value was “high micromolar range”.
Regarding `CC1=CC(C)=[N+]2C1=C(CCCCc1cn(C[C@@H]3[C@@H](O)[C@H](O)[C@@H](O)[C@@H]4O[C@H]34)nn1)c1c(C)cc(C)n1[B-]2(F)F` [MDW933], the “competition with ABP JJB75 (cell permeability)” value in series [3] is given as “did show competition”.

Values taken from paper PMC11808397, “Development of selective nanomolar cyclic peptide ligands as GBA1 enzyme stabilisers” (RSC Chemical Biology, 2025).
